Assay results reported in US11026944B2, “Compositions and methods for treating insomnia” (Eisai R&D Management Co., Ltd., priority 2014, dated 2021).
Where two headings read alike, the source gives them in different places.

Tests used:
[1] = Single dose study (001 Study) Part A: plasma PK of compound A; assay type: in vivo; settings: human, healthy subjects (Part A); for AUC from 0 to 24 h / AUC(0-inf) / AUC(0-t) / Cmax / half-life / Tmax: plasma, po; for AUC from 0 to 24 h: read-out: AUC(0-24) Mean(SD); for AUC(0-inf): read-out: AUC(0-inf) Mean(SD); for AUC(0-t): read-out: AUC(0-t) Mean(SD); for Cmax: read-out: Cmax Mean(SD); for half-life: read-out: t1/2 Median (converted); for Tmax: read-out: tmax Median; for concentration at 9 h: read-out: C9 Mean(SD)
Description: This was a randomized, double-blind, placebo- and active-controlled, sequential, single-dose study. The study consisted of two parts, Part A (healthy subjects) and Part B (otherwise healthy subjects with primary insomnia).
(§1) For Part A, 64 healthy subjects were enrolled into cohorts sequentially in a gradual dose escalation manner, to receive either compound A or placebo, and stratified by gender. Each cohort comprised six compound A- and two placebo-treated subjects. All study drugs were administered as single doses using one or more compound A-capsules or compound A-matched placebo capsules due to the test dose. After screening, subjects underwent baseline procedures and randomization on Day-2. Subjects were dosed on Day 1 in the morning after an overnight fast, 1 hour after lights-on. PK blood samples were collected at prespecified timepoints, and PD assessments were performed. Subjects were administered assessments on Day 1 predose and every 2 hours from 2 to 12 hours postdose, and each morning on Days 2 to 6.
For subjects in Part A, Blood samples for determination of plasma concentrations of compound A were collected on Day 1 predose and at 0.25 (15 minutes), 0.5 (30 minutes), 1, 2, 3, 4, 5, 6, 9, 12, 24, 48, 72, 96, 120, 168, and 240 hours after oral administration of compound A, but collected up to 72 hours in the first three cohorts (1, 2.5 and 5 mg compound A groups). PK samples were collected preferentially via an indwelling venous catheter for the first 12 hours and by direct venipuncture thereafter.
Plasma concentrations of compound A were measured using a validated liquid chromatography-mass spectrometry/mass spectrometry (LC-MS/MS) assay.

[2] = tested on: healthy subjects; assay: 001 Study Part A: sleepiness measures KSS, DSST, PVT; assay type: in vivo, human
Description: as §1
These assessments included the Karolinska Sleepiness Scale (KSS), Digit Symbol Substitution Test (DSST), and Psychomotor Vigilance Test (PVT) in order to assess daytime sleepiness, level of alertness, and ability to concentrate. Waketime Questionnaires were administered after PD assessments each morning on Days 1 to Day 6. Time and duration of naps was recorded on Days 1 and 2. Safety was monitored throughout the study. […]

Cc1ncc(OC[C@@]2(c3cccc(F)c3)C[C@H]2C(=O)Nc2ccc(F)cn2)c(C)n1 [Compound A, (1R,2 S)-2-(((2,4-dimethylpyrimidin-5-yl)oxy)methyl)-2-(3-fluorophenyl)-N-(5-fluoropyridin-2-yl) cyclopropanecarboxamide]
AUC from 0 to 24 h ([1]; 1 mg, single oral 1 mg): ~17.2 ng·h/mL
AUC(0-inf) ([1]; 1 mg, single oral 1 mg): ~19.8 ng·h/mL
AUC(0-t) ([1]; 1 mg, single oral 1 mg): ~19.1 ng·h/mL
Cmax ([1]; 1 mg, single oral 1 mg): ~5.3 ng/mL
half-life ([1]; 1 mg, single oral 1 mg): ~12.7 h
Tmax ([1]; 1 mg, single oral 1 mg): ~1 h
AUC from 0 to 24 h ([1]; 2.5 mg, single oral 2.5 mg): 56.8 ng·h/mL
AUC(0-inf) ([1]; 2.5 mg, single oral 2.5 mg): 79.7 ng·h/mL
AUC(0-t) ([1]; 2.5 mg, single oral 2.5 mg): 80.2 ng·h/mL
Cmax ([1]; 2.5 mg, single oral 2.5 mg): 15.9 ng/mL
half-life ([1]; 2.5 mg, single oral 2.5 mg): 30.1 h
Tmax ([1]; 2.5 mg, single oral 2.5 mg): 1.01 h
AUC from 0 to 24 h ([1]; 5 mg, single oral 5 mg): 94.6 ng·h/mL
AUC(0-inf) ([1]; 5 mg, single oral 5 mg): 149 ng·h/mL
AUC(0-t) ([1]; 5 mg, single oral 5 mg): 128 ng·h/mL
Cmax ([1]; 5 mg, single oral 5 mg): 22.7 ng/mL
half-life ([1]; 5 mg, single oral 5 mg): 31.3 h
Tmax ([1]; 5 mg, single oral 5 mg): 1.55 h
AUC from 0 to 24 h ([1]; 10 mg, single oral 10 mg): 159 ng·h/mL
AUC(0-inf) ([1]; 10 mg, single oral 10 mg): 311 ng·h/mL
AUC(0-t) ([1]; 10 mg, single oral 10 mg): 284 ng·h/mL
Cmax ([1]; 10 mg, single oral 10 mg): 36 ng/mL
half-life ([1]; 10 mg, single oral 10 mg): 56.1 h
Tmax ([1]; 10 mg, single oral 10 mg): 1 h
AUC from 0 to 24 h ([1]; 25 mg, single oral 25 mg): 654 ng·h/mL
AUC(0-inf) ([1]; 25 mg, single oral 25 mg): 1540 ng·h/mL
AUC(0-t) ([1]; 25 mg, single oral 25 mg): 1450 ng·h/mL
Cmax ([1]; 25 mg, single oral 25 mg): 108 ng/mL
half-life ([1]; 25 mg, single oral 25 mg): 65.5 h
Tmax ([1]; 25 mg, single oral 25 mg): 2.01 h
AUC from 0 to 24 h ([1]; 50 mg, single oral 50 mg): 1110 ng·h/mL
AUC(0-inf) ([1]; 50 mg, single oral 50 mg): 2150 ng·h/mL
AUC(0-t) ([1]; 50 mg, single oral 50 mg): 2080 ng·h/mL
Cmax ([1]; 50 mg, single oral 50 mg): 168 ng/mL
half-life ([1]; 50 mg, single oral 50 mg): 51.9 h
Tmax ([1]; 50 mg, single oral 50 mg): 2.53 h
AUC from 0 to 24 h ([1]; 100 mg, single oral 100 mg): 1930 ng·h/mL
AUC(0-inf) ([1]; 100 mg, single oral 100 mg): 4740 ng·h/mL
AUC(0-t) ([1]; 100 mg, single oral 100 mg): 4490 ng·h/mL
Cmax ([1]; 100 mg, single oral 100 mg): 264 ng/mL
half-life ([1]; 100 mg, single oral 100 mg): 59.8 h
Tmax ([1]; 100 mg, single oral 100 mg): 3 h
AUC from 0 to 24 h ([1]; 200 mg, single oral 200 mg): 4080 ng·h/mL
AUC(0-inf) ([1]; 200 mg, single oral 200 mg): 10500 ng·h/mL
AUC(0-t) ([1]; 200 mg, single oral 200 mg): 9840 ng·h/mL
Cmax ([1]; 200 mg, single oral 200 mg): 431 ng/mL
half-life ([1]; 200 mg, single oral 200 mg): 65.2 h
Tmax ([1]; 200 mg, single oral 200 mg): 3 h
concentration at 9 h ([1]; plasma at 9 h after single oral 1 mg): 0.384 ng/mL
concentration at 9 h ([1]; plasma at 9 h after single oral 2.5 mg): 1.54 ng/mL
concentration at 9 h ([1]; plasma at 9 h after single oral 5 mg): 2.68 ng/mL
concentration at 9 h ([1]; plasma at 9 h after single oral 10 mg): 4.6 ng/mL
concentration at 9 h ([1]; plasma at 9 h after single oral 25 mg): 21.9 ng/mL
concentration at 9 h ([1]; plasma at 9 h after single oral 50 mg): 39.3 ng/mL
concentration at 9 h ([1]; plasma at 9 h after single oral 100 mg): 86 ng/mL
concentration at 9 h ([1]; plasma at 9 h after single oral 200 mg): 199 ng/mL
time of maximal pharmacodynamic response on KSS, DSST, PVT ([2]; postdose, coinciding with Cmax): ~2 h
measures of sleepiness (KSS, DSST, PVT) ([2]; single morning doses 1-200 mg): general dose-response relationship
